24 molecules from patent US20200247800A1, “SUBSTITUTED BICYCLIC HETEROCYCLIC COMPOUNDS AS NADPH OXIDASE INHIBITORS” (Glenmark Pharmaceuticals S.A., priority 2017, published 2020) can be followed below.

This assay addresses T1, human NOX4 (Homo sapiens, UniProt Q9NPH5).
T1 construct: expressed in transfected cells; membrane fraction used
T1 sequence (Q9NPH5 1-578): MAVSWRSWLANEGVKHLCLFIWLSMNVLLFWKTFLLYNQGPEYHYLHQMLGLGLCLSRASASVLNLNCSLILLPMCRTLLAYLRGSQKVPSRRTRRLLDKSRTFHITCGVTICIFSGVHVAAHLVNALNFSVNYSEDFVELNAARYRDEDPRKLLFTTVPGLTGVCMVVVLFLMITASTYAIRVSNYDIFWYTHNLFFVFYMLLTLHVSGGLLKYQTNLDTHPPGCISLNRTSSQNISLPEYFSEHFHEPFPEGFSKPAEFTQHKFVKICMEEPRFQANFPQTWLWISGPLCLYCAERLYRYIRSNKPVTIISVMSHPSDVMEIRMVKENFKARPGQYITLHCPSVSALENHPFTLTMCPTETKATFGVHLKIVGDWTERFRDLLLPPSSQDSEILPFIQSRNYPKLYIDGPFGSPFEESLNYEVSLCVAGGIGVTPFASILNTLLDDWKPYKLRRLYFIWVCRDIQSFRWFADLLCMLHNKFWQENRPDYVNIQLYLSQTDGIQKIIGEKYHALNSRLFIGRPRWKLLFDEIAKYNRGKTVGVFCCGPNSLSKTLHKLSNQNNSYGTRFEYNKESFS
T1 sequence (P13498 1-195 partner): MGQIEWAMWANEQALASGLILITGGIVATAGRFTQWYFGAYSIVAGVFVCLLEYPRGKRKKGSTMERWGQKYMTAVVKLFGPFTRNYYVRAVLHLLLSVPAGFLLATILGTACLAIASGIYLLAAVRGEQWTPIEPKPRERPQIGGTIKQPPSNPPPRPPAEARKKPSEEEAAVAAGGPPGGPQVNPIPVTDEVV
Description: Cell free membrane based in vitro NOX4 assay: H2O2 production by membranes expressing human NOX4, measured with Amplex Red. The class given is biochemical. Particulars: for inhibition at 1 µM: 1.0 μM compound, read-out: Percentage inhibition at 1.0 μM; for IC50: class symbols; for inhibition at 10 µM: 10.0 μM compound, read-out: Percentage inhibition at 10.0 μM. Put shortly:
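Membranes from HEK cells stably overexpressing human NOX4 were preincubated 20 min with inhibitor in pH 7.4 HEPES buffer containing HRP and Amplex Red, then NADPH was added. H2O2 was followed for 10 min by fluorescence (ex 544/em 590 nm). IC50 from nonlinear regression of % maximal uninhibited response.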

In general, inhibition refers to the share of the control response that was lost under treatment. As usually defined, the IC50 is the point on the concentration scale where inhibition reaches its midpoint. Higher therefore signals weaker potency.

For the molecule `CCCn1nc(CC)c2c(=O)c(O)c(-c3ccc(F)cc3F)[nH]c21` [Example 170, 6-(2,4-Difluorophenyl)-3-ethyl-5-hydroxy-1-propyl-1H-pyrazolo[3,4-b]pyridin-4(7H)-one], the inhibition at 1 µM came to 74.4% and the IC50 was > 150 nM.
Take `Cc1ccc(F)c(-c2[nH]c3c(c(C)nn3C3CC3)c(=O)c2O)c1F` [Example 93, 1-Cyclopropyl-6-(2,6-difluoro-3-methylphenyl)-5-hydroxy-3-methyl-1H-pyrazolo[3,4-b]pyridin-4(7H)-one]: the inhibition at 1 µM turned out to be 69.1%, the inhibition at 10 µM was 79.6% and the IC50 was > 150 nM.
As for `Cc1nn(C)c2[nH]c(-c3ccc(Cl)cc3F)c(O)c(=O)c12` [Example 25, 6-(4-Chloro-2-fluorophenyl)-5-hydroxy-1,3-dimethyl-1,7-dihydro-4H-pyrazolo[3,4-b]pyridin-4-one], the inhibition at 1 µM worked out at 90.7% and the inhibition at 10 µM turned out to be 78.3%.
Take `COc1ccc(Cl)c(-c2[nH]c3c(c(C(F)(F)F)nn3C)c(=O)c2O)c1` [Example 49, 6-(2-Chloro-5-methoxyphenyl)-5-hydroxy-1-methyl-3-(trifluoromethyl)-1,7-dihydro-4H-pyrazolo[3,4-b]pyridin-4-one]: the inhibition at 1 µM is 100%, the inhibition at 10 µM was 100% and the IC50 was > 150 nM.
Regarding `Cc1nn(C)c2oc(-c3ccccc3Cl)c(O)c(=O)c12` [Example 230, 6-(2-chlorophenyl)-5-hydroxy-1,3-dimethylpyrano[2,3-c]pyrazol-4(1H)-one], the inhibition at 1 µM was 3.28% and the inhibition at 10 µM stood at 5.83%.
Turning to `Cn1nc(CN2CC[C@H](F)C2)c2c(=O)c(O)c(-c3c(F)cccc3F)[nH]c21` [Example 195, (S)-6-(2,6-Difluorophenyl)-3-((3-fluoropyrrolidin-1-yl)methyl)-5-hydroxy-1-methyl-1H-pyrazolo[3,4-b]pyridin-4(7H)-one], the inhibition at 1 µM was found to be 97.7%, the inhibition at 10 µM worked out at 100% and the IC50 is 100 to 150 nM.
Turning to `CCc1nn(CCN2CCOCC2)c2[nH]c(-c3cccc(C(F)(F)F)c3F)c(O)c(=O)c12` [Example 164, 3-Ethyl-6-(2-fluoro-3-(trifluoromethyl)phenyl)-5-hydroxy-1-(2-morpholinoethyl)-1H-pyrazolo[3,4-b]pyridin-4(7H)-one], the IC50 is > 150 nM.
For the molecule `Cn1nc(C2CCN(S(C)(=O)=O)CC2)c2c(=O)c(O)c(-c3c(F)cccc3F)[nH]c21` [Example 185, 6-(2,6-Difluorophenyl)-5-hydroxy-1-methyl-3-(1-(methylsulfonyl)piperidin-4-yl)-1H-pyrazolo[3,4-b]pyridin-4(7H)-one], the inhibition at 1 µM came out at 80.1%, the inhibition at 10 µM amounted to 78.2% and the IC50 was in the range of 50 to 100 nM.
As for `COc1ccc(-c2[nH]c3c(c(C(F)(F)F)nn3C)c(=O)c2O)c(OC)c1` [Example 51, 6-(2,4-Dimethoxyphenyl)-5-hydroxy-1-methyl-3-(trifluoromethyl)-1,7-dihydro-4H-pyrazolo[3,4-b]pyridin-4-one], the inhibition at 1 µM was found to be 74.4%, the inhibition at 10 µM was 86.5% and the IC50 is > 150 nM.
The like results for `CCc1nn(CCS(C)(=O)=O)c2[nH]c(-c3c(F)cccc3F)c(O)c(=O)c12` [Example 218, 6-(2,6-Difluorophenyl)-3-ethyl-5-hydroxy-1-(2-(methylsulfonyl)ethyl)-1H-pyrazolo[3,4-b]pyridin-4(7H)-one] were, in that order, 85.5%, 90.1% and 50 to 100 nM.
The like results for `O=c1c(O)c(-c2ccccc2Cl)[nH]c2c1cnn2CC(F)(F)F` [Example 8, 6-(2-Chlorophenyl)-5-hydroxy-1-(2,2,2-trifluoroethyl)-1,7-dihydro-4H-pyrazolo[3,4-b]pyridin-4-one] were, in that order, 87.5%, 100% and 50 to 100 nM.
The corresponding values for `Cn1ncc2c(=O)c(O)c(-c3ccccc3Cl)[nH]c21` [Example 3, 6-(2-Chlorophenyl)-5-hydroxy-1-methyl-1,7-dihydro-4H-pyrazolo[3,4-b]pyridin-4-one] are 93.7%, 100% and 100 to 150 nM.
`CCc1nn(C)c2[nH]c(-c3ccc(F)c(C(F)(F)F)c3)c(O)c(=O)c12` [Example 159, 3-Ethyl-6-(4-fluoro-3-(trifluoromethyl)phenyl)-5-hydroxy-1-methyl-1H-pyrazolo[3,4-b]pyridine-4(7H)-one]: the inhibition at 1 µM amounted to 71.9% and the IC50 is > 150 nM.
The corresponding values for `CCn1nc(C)c2c(=O)c(O)c(-c3ccc(OC)cc3F)[nH]c21` [Example 69, 1-Ethyl-6-(2-fluoro-4-methoxyphenyl)-5-hydroxy-3-methyl-1H-pyrazolo[3,4-b]pyridin-4(7H)-one] are 67.2% and > 150 nM.
For `CCc1nn(CCN2CCC(F)(F)CC2)c2[nH]c(-c3c(F)cccc3F)c(O)c(=O)c12` [Example 205, 6-(2,6-Difluorophenyl)-1-(2-(4,4-difluoropiperidin-1-yl)ethyl)-3-ethyl-5-hydroxy-1H-pyrazolo[3,4-b]pyridin-4(7H)-one], the inhibition at 1 µM worked out at 95.9%, the inhibition at 10 µM stood at 94.6% and the IC50 lay within 50 to 100 nM.
With `CCn1nc(CC(C)C)c2c(=O)c(O)c(-c3c(F)cccc3F)[nH]c21` [Example 122, 6-(2,6-Difluorophenyl)-1-ethyl-5-hydroxy-3-(2-methylpropyl)-1,7-dihydro-4H-pyrazolo[3,4-b]pyridin-4-one], the inhibition at 1 µM was 72.7%, the inhibition at 10 µM was 75.4% and the IC50 is > 150 nM.
The like results for `Cc1nn(Cc2ccc(F)cc2)c2[nH]c(-c3c(F)cccc3F)c(O)c(=O)c12` [Example 84, 6-(2,6-Difluorophenyl)-1-(4-fluorobenzyl)-5-hydroxy-3-methyl-1H-pyrazolo[3,4-b]pyridin-4(7H)-one] were, in that order, 80.2%, 88.6% and > 150 nM.
As to `COc1cc(F)c(-c2[nH]c3c(c(C)nn3C)c(=O)c2O)c(F)c1` [Example 67, 6-(2,6-Difluoro-4-methoxyphenyl)-5-hydroxy-1,3-dimethyl-1H-pyrazolo[3,4-b]pyridin-4(7H)-one], the inhibition at 1 µM stood at 87.1%, the inhibition at 10 µM turned out to be 85.7% and the IC50 was 50 to 100 nM.
As for `CCc1nn(CCCN2C[C@@H](C)O[C@@H](C)C2)c2[nH]c(-c3c(F)cccc3F)c(O)c(=O)c12` [Example 206, 6-(2,6-Difluorophenyl)-1-(3-((2R,6S)-2,6-dimethylmorpholino)propyl)-3-ethyl-5-hydroxy-1H-pyrazolo[3,4-b]pyridin-4(7H)-one], the inhibition at 1 µM came out at 94.6%, the inhibition at 10 µM turned out to be 91.3% and the IC50 fell in the range of 50 to 100 nM.
Take `COCCn1nc(C)c2c(=O)c(O)c(-c3c(F)cccc3F)[nH]c21` [Example 90, 6-(2,6-Difluorophenyl)-5-hydroxy-1-(2-methoxyethyl)-3-methyl-1H-pyrazolo[3,4-b]pyridin-4(7H)-one]: the inhibition at 1 µM worked out at 100%, the inhibition at 10 µM was found to be 100% and the IC50 was in the range of 50 to 100 nM.
Consider `CCn1nc(C)c2c(=O)c(O)c(-c3ccc(NS(C)(=O)=O)cc3F)[nH]c21` [Example 235, N-[4-(1-ethyl-5-hydroxy-3-methyl-4-oxo-4,7-dihydro-1H-pyrazolo[3,4-b]pyridin-6-yl)-3-fluorophenyl]methanesulfonamide], for which the inhibition at 1 µM came out at 72.9% and the IC50 was > 150 nM.
For `CCc1nn(CC2CCOCC2)c2[nH]c(-c3ccccc3Cl)c(O)c(=O)c12` [Example 208, 6-(2-Chlorophenyl)-3-ethyl-5-hydroxy-1-((tetrahydro-2H-pyran-4-yl)methyl)-1H-pyrazolo[3,4-b]pyridin-4(7H)-one], the inhibition at 1 µM was found to be 82.5%, the inhibition at 10 µM was determined as 71.6% and the half-inhibitory concentration (IC50) was in the range of 100 to 150 nM.
Consider `COc1ccc(-c2[nH]c3c(c(C(F)(F)F)nn3C)c(=O)c2O)cc1` [Example 53, 5-Hydroxy-6-(4-methoxyphenyl)-1-methyl-3-(trifluoromethyl)-1,7-dihydro-4H-pyrazolo[3,4-b]pyridin-4-one], for which the inhibition at 1 µM was 90.5%, the inhibition at 10 µM was 84.6% and the half-inhibitory concentration (IC50) was in the range of 100 to 150 nM.
The corresponding values for `COCCCn1nc(C)c2c(=O)c(O)c(-c3c(F)cccc3F)[nH]c21` [Example 92, 6-(2,6-Difluorophenyl)-5-hydroxy-1-(3-methoxypropyl)-3-methyl-1H-pyrazolo[3,4-b]pyridin-4(7H)-one] are 75.6%, 76.5% and 100 to 150 nM.
